PubChem BioAssay (NCI)
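Method: 48-hour compound exposure of cells in 96-well plates, five concentrations, linear interpolation of endpoints. Here, GI50 denotes the concentration required for 50% inhibition of growth. TGI: total growth inhibition.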

Columns and labels:
Experiment in all cases: NCI-60 cell line screen, 48 h
[1] = test system: HS 578T breast
[2] = test system: K-562 leukemia
[3] = test system: HT29 colon
[4] = test system: PC-3 prostate
[5] = test system: NCI-H226 lung
[6] = test system: UACC-62 melanoma
[7] = test system: SK-MEL-2 melanoma
[8] = test system: IGROV1 ovarian
[9] = test system: OVCAR-4 ovarian
[10] = test system: DU-145 prostate
[11] = test system: MDA-MB-231 breast
[12] = test system: RXF 393 renal
[13] = test system: HCT-116 colon
[14] = test system: SK-OV-3 ovarian
[15] = test system: HCT-15 colon
[16] = test system: SNB-75 CNS
[17] = test system: MOLT-4 leukemia
[18] = test system: HL-60(TB) leukemia
[19] = test system: A498 renal
[20] = test system: NCI/ADR-RES ovarian
[21] = test system: ACHN renal
[22] = test system: A549 NSCLC
[23] = test system: OVCAR-8 ovarian
[24] = test system: LOX IMVI melanoma
[25] = test system: SF-539 CNS
[26] = test system: U251 CNS
[27] = test system: SK-MEL-28 melanoma
[28] = test system: SN12C renal
[29] = test system: SK-MEL-5 melanoma
[30] = test system: SNB-19 CNS
[31] = test system: SF-268 CNS
[32] = test system: MDA-MB-435
[33] = test system: SW-620 colon
[34] = test system: UO-31 renal
[35] = test system: KM12 colon
[36] = test system: NCI-H23 lung
[37] = test system: SF-295 CNS
[38] = test system: MCF7 breast
[39] = test system: BT-549 breast
[40] = test system: COLO 205 colon
[41] = test system: CCRF-CEM leukemia
[42] = test system: NCI-H460 lung
[43] = test system: M14 melanoma
[44] = test system: EKVX NSCLC
[45] = test system: OVCAR-5 ovarian
[46] = test system: HOP-62 NSCLC
[47] = test system: HOP-92 NSCLC
[48] = test system: UACC-257 melanoma
[49] = test system: SR leukemia
[50] = test system: TK-10 renal
[51] = test system: CAKI-1 renal
[52] = test system: OVCAR-3 ovarian
[53] = test system: T-47D breast
[54] = test system: 786-0 renal
[55] = test system: RPMI-8226 leukemia
[56] = test system: HCC-2998 colon
[57] = test system: MALME-3M melanoma

Work on `COc1ccc(-c2cnoc2-c2ccc(OC)cc2O)cc1` yielded a GI50 [1] of 1.9 µM, a TGI [1] of 6.69 µM and a GI50 [2] of 0.534 µM. The TGI [2] was greater than 100 µM, the GI50 [3] was 3.54 µM and the TGI [3] was 15.3 µM. For the same compound, the GI50 [4] was 4.52 µM, the TGI [4] was 54.3 µM and the GI50 [5] was 12.8 µM. For the same compound, the TGI [5] was 55.6 µM, the GI50 [6] was 2.61 µM and the TGI [6] was 20.2 µM. The GI50 [7] was 3.33 µM, the TGI [7] was 11.8 µM and the GI50 [8] was 7.54 µM. It also gave a TGI [8] of 92.1 µM, a GI50 [9] of 10.5 µM and a TGI [9] greater than 100 µM. The GI50 [10] was 3.85 µM, the TGI [10] was 15.8 µM and the GI50 [11] was 3.32 µM. For the same compound, the TGI [11] was 27.6 µM, the GI50 [12] was 3.4 µM and the TGI [12] was 11.1 µM. The GI50 [13] was 2.82 µM, the TGI [13] was 16.5 µM and the GI50 [14] was 4.17 µM. For the same compound, the TGI [14] was 24 µM, the GI50 [15] was 2.56 µM and the TGI [15] was greater than 100 µM. The GI50 [16] was 1.72 µM, the TGI [16] was 9.86 µM and the GI50 [17] was 3.36 µM. The TGI [17] was 22.9 µM, the GI50 [18] was 2.93 µM and the TGI [18] was 16.8 µM. The GI50 [19] was 1.78 µM, the TGI [19] was 8.49 µM and the GI50 [20] was 1.75 µM. For the same compound, the TGI [20] was 19.1 µM, the GI50 [21] was 9.17 µM and the TGI [21] was greater than 100 µM. For the same compound, the GI50 [22] was 4.08 µM, the TGI [22] was 69.3 µM and the GI50 [23] was 4.49 µM. The TGI [23] was 30.4 µM, the GI50 [24] was 6.9 µM and the TGI [24] was 26.2 µM. It also gave a GI50 [25] of 3.66 µM, a TGI [25] of 16.6 µM and a GI50 [26] of 3.58 µM. For the same compound, the TGI [26] was 18.3 µM, the GI50 [27] was 5.42 µM and the TGI [27] was 60.5 µM. For the same compound, the GI50 [28] was 5 µM, the TGI [28] was 41.1 µM and the GI50 [29] was 3.52 µM. The TGI [29] was 14.2 µM, the GI50 [30] was 5.29 µM and the TGI [30] was greater than 100 µM. The GI50 [31] was 6.32 µM, the TGI [31] was 42.6 µM and the GI50 [32] was 0.314 µM. The TGI [32] was 1.6 µM, the GI50 [33] was 2.05 µM and the TGI [33] was greater than 100 µM. For the same compound, the GI50 [34] was 11.6 µM, the TGI [34] was 53.3 µM and the GI50 [35] was 2.66 µM. It also gave a TGI [35] of 15 µM, a GI50 [36] of 4.31 µM and a TGI [36] of 50.3 µM. The GI50 [37] was 2.99 µM, the TGI [37] was 14.8 µM and the GI50 [38] was 2.85 µM. It also gave a TGI [38] of 85.2 µM, a GI50 [39] of 9.73 µM and a TGI [39] of 35.3 µM. The GI50 [40] was 9.5 µM, the TGI [40] was 30.4 µM and the GI50 [41] was 3.09 µM. It also gave a TGI [41] greater than 100 µM, a GI50 [42] of 3.24 µM and a TGI [42] of 12.4 µM. For the same compound, the GI50 [43] was 2.69 µM, the TGI [43] was 15 µM and the GI50 [44] was 15.5 µM. It also gave a TGI [44] greater than 100 µM, a GI50 [45] of 13.5 µM and a TGI [45] greater than 100 µM. It also gave a GI50 [46] of 4.6 µM, a TGI [46] of 35.7 µM and a GI50 [47] of 2.42 µM. For the same compound, the TGI [47] was 27.4 µM, the GI50 [48] was 6.9 µM and the TGI [48] was 41.6 µM. The GI50 [49] was 0.628 µM, the TGI [49] was 13 µM and the GI50 [50] was 11.8 µM. For the same compound, the TGI [50] was 47.5 µM, the GI50 [51] was 4.31 µM and the TGI [51] was greater than 100 µM. The GI50 [52] was 2.32 µM, the TGI [52] was 5.76 µM and the GI50 [53] was 8.64 µM. For the same compound, the TGI [53] was greater than 100 µM, the GI50 [54] was 5.31 µM and the TGI [54] was 37.5 µM. For the same compound, the GI50 [55] was 4.98 µM, the TGI [55] was 67.4 µM and the GI50 [56] was 5.27 µM. It also gave a TGI [56] of 29.8 µM, a GI50 [57] of 14.1 µM and a TGI [57] of 49.5 µM.
